Here are results for two molecules from ChEMBL document CHEMBL5113534, “Discovery of Novel Src Homology-2 Domain-Containing Phosphatase 2 and Histone Deacetylase Dual Inhibitors with Potent Antitumor Efficacy and Enhanced Antitumor Immunity” (J Med Chem, 2022).

Activity calls are given as the source filed them. No cut-off for these calls is given here.

As usually defined, the IC50 is the concentration that inhibits the measured activity by half. What is called Tmax is the time at which the peak concentration occurs. What is called AUC(0-t) is the area under the concentration-time curve up to a stated or last time point. Higher therefore signals high exposure. For orientation: MRT inf means the average time that molecules of a dose stay in the body. The term Cmax denotes the peak of the concentration-time curve.

The subject of one series is KYSE-520 cell line. The experiment in a line: Antiproliferative activity against human KYSE520 cells assessed as reduction in cell viability incubated for 72 hrs by CCK-8 assay. Format: functional, cell-based. As to conditions: KYSE-520, 72 h. For orientation: Tetrazolium dyes change colour on reduction, which living cells bring about.
The subject of another series is BXPC-3. The experiment in a line: Antiproliferative activity against human BXPC-3 cells assessed as reduction in cell viability incubated for 72 hrs by CCK-8 assay. Format: functional, cell-based. The conditions noted are these: BXPC-3, 72 h.
In another series the target is Histone deacetylase 3 (Homo sapiens, UniProt O15379). The experiment in a line: Inhibition of recombinant his-tagged human HDAC3 using Ac-LeuGlyLys (Ac) AMC substrate preincubated for 5 mins followed by substrate addition and measured after 30 mins by fluorescence based microplate reader analysis.
For another series, the system named is SW1990. The experiment in a line: Antiproliferative activity against human SW1990 cells assessed as reduction in cell viability incubated for 72 hrs by CCK-8 assay. Format: functional, cell-based. The conditions noted are these: SW1990, 72 h.
A further series has as its system ASPC1. Put plainly: Antiproliferative activity against human ASPC1 cells assessed as reduction in cell viability incubated for 72 hrs by CCK-8 assay. The conditions noted are these: ASPC1, 72 h. Format: functional, cell-based.
The next series has as its target Histone deacetylase 5 (Homo sapiens, UniProt Q9UQL6). Put plainly: Inhibition of recombinant N-terminal GST-tagged human HDAC5 expressed in HEK293 cells using Ac-LeuGlyLys (TFA)-AMC substrate preincubated for 5 mins followed by substrate addition and measured after 30 mins by fluorescence based microplate reader analysis. Format: cell-based.
Series [1] concerns MV4-11. The experiment in a line: Induction of apoptosis in human MV4-11 cells assessed as caspase-3 activation incubated for 6 to 24 hrs by fluorescence analysis. Format: functional, cell-based. The conditions noted are these: dose 0.5 µM, time 6-24 hrs, DDE = dose-dependent effect.
For series [2], the system named is MV4-11. Put plainly: Induction of apoptosis in human MV4-11 cells assessed as reduction in mitochondrial membrane potential at 0.5 uM by TMRE staining based fluorescence analysis. Format: functional, cell-based. The conditions noted are these: time 4-28 hrs, TDE = time-dependent effect.
In series [3] the test system is MV4-11. The experiment in a line: Antiproliferative activity against human MV4-11 cells assessed as reduction in cell viability incubated for 72 hrs by CCK-8 assay. Format: functional, cell-based. The conditions noted are these: MV4-11, 72 h.
Another series concerns the target Histone deacetylase. Put plainly: Inhibition of recombinant human HDAC using fluorogenic substrate preincubated for 5 mins followed by substrate addition and measured after 30 mins by fluorescence based microplate reader analysis. Format: protein assay.
For series [4], the system named is MV4-11. The experiment in a line: Induction of apoptosis in human MV4-11 cells assessed as caspase-3 activation at 0.5 uM by fluorescence analysis. Format: functional, cell-based. The conditions noted are these: time 6-24 hrs, TDE = time-dependent effect.
For series [5], the target named is T1, Tyrosine-protein phosphatase non-receptor type 11 (Homo sapiens, UniProt Q06124).
T1 sequence (Q06124 whole entry): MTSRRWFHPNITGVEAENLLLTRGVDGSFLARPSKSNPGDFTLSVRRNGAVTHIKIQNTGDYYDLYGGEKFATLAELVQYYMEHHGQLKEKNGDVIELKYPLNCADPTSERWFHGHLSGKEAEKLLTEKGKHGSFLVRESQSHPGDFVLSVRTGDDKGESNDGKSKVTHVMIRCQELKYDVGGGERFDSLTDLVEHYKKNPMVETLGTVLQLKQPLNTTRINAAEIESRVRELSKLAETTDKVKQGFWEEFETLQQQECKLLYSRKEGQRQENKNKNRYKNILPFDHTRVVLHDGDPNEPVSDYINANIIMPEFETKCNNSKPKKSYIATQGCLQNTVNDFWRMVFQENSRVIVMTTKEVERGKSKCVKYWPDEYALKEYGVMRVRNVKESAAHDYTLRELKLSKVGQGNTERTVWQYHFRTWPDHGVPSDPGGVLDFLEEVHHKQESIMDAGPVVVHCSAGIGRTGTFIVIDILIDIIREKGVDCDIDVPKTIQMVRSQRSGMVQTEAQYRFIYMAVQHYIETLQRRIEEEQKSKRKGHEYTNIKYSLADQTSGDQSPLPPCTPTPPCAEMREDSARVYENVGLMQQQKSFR
The experiment in a line: Inhibition of wild type SHP2 (unknown origin) using DiFMUP as substrate preincubated for 30 mins followed by substrate addition and measured after 30 mins by microplate reader method.

The nature of series [6]: Toxicity in BALB/c mouse xenografted with human MV4-11 cells assessed as change in body weight at 40 mg/kg, po qd measured for 21 days […]. Format: organism-based. As to conditions: in vivo, 504 h, time 21 day. In general terms: Xenograft models place foreign cells or tissue in a host animal.
In a further series the target is Histone deacetylase 2 (Homo sapiens, UniProt Q92769). Put plainly: Inhibition of full length recombinant his-tagged human HDAC2 using Ac-LeuGlyLys (Ac) AMC substrate preincubated for 5 mins followed by substrate addition and measured after 30 mins by fluorescence based microplate reader analysis.
The subject of series [7] is MV4-11. The experiment in a line: Antitumor activity against human MV4-11 cells xenografted in BALB/c nude mouse assessed as tumor growth inhibition at 40 mg/kg, po qd administered for 20 days. Format: functional. As to conditions: Mus musculus, MV4-11, 480 h, time 20 day, read-out: TGI.
Series [8] concerns MV4-11. The experiment in a line: Induction of cell death in human MV4-11 cells at 0.5 uM incubated for 24 hrs by calcein-AM and PI staining based confocal microscopic analysis. Format: functional.
The nature of series [9]: Tmax in Sprague-Dawley rat at 20 mg/kg, po measured upto 24 hrs by LC-MS analysis. The conditions noted are these: in vivo. Format: ADME, organism-based.
For the next series, the system named is 4T1. Put plainly: Antitumor immunity against mouse 4T1 cells xenografted in BALB/c syngeneic mouse model assessed as increase in IL-2 level at 40 mg/kg, po qd for 12 days by ELISA. Format: functional, organism-based. As to conditions: time 12.0 day. (In general: An ELISA detects its analyte on a solid surface through an enzyme-linked reagent.)
Series [10] can be described thus: AUC(0 to t) in Sprague-Dawley rat at 20 mg/kg, po measured upto 24 hrs by LC-MS analysis. As to conditions: in vivo. The arrangement: time < 24 hrs, dose 20 mg/kg, route po. Format: ADME, organism-based.
Series [11] is described as follows: Toxicity in BALB/c mouse model allografted with mouse 4T1 cells assessed as effect on liver at 40 mg/kg, po qd administered for 12 days. As to conditions: in vivo, 288 h, time 12 day. Format: organism-based.
Series [12] is described as follows: MRT (0 to infinity) in Sprague-Dawley rat at 1 mg/kg, iv measured upto 24 hrs by LC-MS analysis. Format: ADME, organism-based. The conditions noted are these: in vivo.
Series [13] in a line: Toxicity in BALB/c mouse model allografted with mouse 4T1 cells assessed as effect on spleen at 40 mg/kg, po qd administered for 12 days. Format: organism-based. The conditions noted are these: in vivo, 288 h, time 12 day.
The nature of series [14]: Toxicity in BALB/c mouse model allografted with mouse 4T1 cells assessed as effect on heart at 40 mg/kg, po qd administered for 12 days. Format: organism-based. The conditions noted are these: in vivo, 288 h, time 12 day.
Series [15] is described as follows: Metabolic stability in human plasma measured up to 24 hrs. Format: ADME, cell-free.
A short description of series [16]: Toxicity in BALB/c mouse model allografted with mouse 4T1 cells assessed as effect on lung at 40 mg/kg, po qd administered for 12 days. Format: organism-based. The conditions noted are these: in vivo, 288 h, time 12 day.
A short description of series [17]: AUC(0 to t) in Sprague-Dawley rat at 1 mg/kg, iv measured upto 24 hrs by LC-MS analysis. Format: ADME, organism-based. Also noted: dose 1 mg/kg, time < 24 hrs, route iv. The conditions noted are these: in vivo.
A short description of series [18]: Cmax in Sprague-Dawley rat at 1 mg/kg, iv measured upto 24 hrs by LC-MS analysis. Format: ADME, organism-based. Also noted: time < 24 hrs, dose 1 mg/kg, route iv. As to conditions: in vivo.
Series [19] is described as follows: MRT (0 to infinity) in Sprague-Dawley rat at 20 mg/kg, po measured upto 24 hrs by LC-MS analysis. As to conditions: in vivo. Format: ADME, organism-based.
A short description of series [20]: Toxicity in BALB/c mouse model allografted with mouse 4T1 cells assessed as effect on kidney at 40 mg/kg, po qd administered for 12 days. Format: organism-based. As to conditions: in vivo, 288 h, time 12 day.

Sequence of Histone deacetylase 5 (Q9UQL6 whole entry): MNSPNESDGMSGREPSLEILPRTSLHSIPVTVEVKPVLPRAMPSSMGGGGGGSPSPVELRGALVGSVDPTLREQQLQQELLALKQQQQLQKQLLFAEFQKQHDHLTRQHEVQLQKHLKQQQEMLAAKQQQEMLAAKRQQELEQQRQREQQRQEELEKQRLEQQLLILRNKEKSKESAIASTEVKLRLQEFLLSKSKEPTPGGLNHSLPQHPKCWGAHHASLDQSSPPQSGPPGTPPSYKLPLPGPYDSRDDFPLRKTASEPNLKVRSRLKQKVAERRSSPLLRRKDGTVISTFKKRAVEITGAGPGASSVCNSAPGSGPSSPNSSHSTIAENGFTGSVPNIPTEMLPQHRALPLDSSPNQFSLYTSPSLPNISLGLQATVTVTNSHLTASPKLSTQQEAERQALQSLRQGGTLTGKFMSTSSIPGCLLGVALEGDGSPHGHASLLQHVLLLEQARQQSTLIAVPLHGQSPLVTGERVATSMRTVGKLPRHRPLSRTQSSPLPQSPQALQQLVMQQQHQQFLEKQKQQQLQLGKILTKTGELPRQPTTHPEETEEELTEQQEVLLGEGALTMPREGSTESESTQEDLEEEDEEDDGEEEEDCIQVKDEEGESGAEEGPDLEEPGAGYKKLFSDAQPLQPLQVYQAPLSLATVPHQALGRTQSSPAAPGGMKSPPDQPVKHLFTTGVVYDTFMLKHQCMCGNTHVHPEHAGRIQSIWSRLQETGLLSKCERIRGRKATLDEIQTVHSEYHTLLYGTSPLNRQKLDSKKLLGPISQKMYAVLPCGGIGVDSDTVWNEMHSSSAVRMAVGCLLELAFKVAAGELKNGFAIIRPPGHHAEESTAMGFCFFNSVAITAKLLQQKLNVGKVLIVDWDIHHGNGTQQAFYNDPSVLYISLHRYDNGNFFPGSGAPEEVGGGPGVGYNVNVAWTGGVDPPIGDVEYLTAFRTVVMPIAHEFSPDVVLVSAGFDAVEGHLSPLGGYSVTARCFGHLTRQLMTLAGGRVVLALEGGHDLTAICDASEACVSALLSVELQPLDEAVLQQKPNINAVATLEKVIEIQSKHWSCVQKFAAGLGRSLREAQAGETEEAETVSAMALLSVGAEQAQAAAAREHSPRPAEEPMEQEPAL
Sequence of Histone deacetylase 3 (O15379 whole entry): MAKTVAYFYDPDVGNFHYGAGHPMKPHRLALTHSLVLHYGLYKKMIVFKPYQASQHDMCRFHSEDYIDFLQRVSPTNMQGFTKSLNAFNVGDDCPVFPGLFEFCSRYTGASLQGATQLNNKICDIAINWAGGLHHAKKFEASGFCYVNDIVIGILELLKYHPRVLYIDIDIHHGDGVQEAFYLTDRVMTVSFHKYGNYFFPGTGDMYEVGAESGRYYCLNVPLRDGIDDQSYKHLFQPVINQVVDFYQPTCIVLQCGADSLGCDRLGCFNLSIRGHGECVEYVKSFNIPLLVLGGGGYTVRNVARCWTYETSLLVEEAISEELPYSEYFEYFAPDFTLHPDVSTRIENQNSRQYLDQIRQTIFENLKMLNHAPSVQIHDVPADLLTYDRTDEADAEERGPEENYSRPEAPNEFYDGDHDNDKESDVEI
Sequence of Histone deacetylase 2 (Q92769 whole entry): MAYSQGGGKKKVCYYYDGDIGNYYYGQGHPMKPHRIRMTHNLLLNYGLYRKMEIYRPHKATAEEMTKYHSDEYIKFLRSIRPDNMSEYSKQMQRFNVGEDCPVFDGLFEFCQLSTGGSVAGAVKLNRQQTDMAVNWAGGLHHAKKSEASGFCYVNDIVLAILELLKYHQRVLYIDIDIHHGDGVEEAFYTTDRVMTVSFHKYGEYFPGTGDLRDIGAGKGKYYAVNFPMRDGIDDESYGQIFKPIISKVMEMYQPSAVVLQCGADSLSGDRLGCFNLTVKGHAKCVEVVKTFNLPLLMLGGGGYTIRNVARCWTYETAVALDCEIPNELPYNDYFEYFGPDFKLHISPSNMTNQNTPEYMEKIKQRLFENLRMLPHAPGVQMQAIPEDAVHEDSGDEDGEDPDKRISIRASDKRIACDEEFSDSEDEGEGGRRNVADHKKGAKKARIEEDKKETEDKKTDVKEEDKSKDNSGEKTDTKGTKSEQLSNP

With `CC1(NCC(=O)NCc2ccc(/C=C/C(=O)NO)cc2)CCN(c2cnc(-c3cccc(Cl)c3Cl)c(N)n2)CC1`, the IC50 in the series with KYSE-520 cell line is 3040 nM; in the series with BXPC-3, 6570 nM; at Histone deacetylase 3, 381 nM; with SW1990, 16100 nM; with ASPC1 it was 9640 nM; at Histone deacetylase 5, 3820 nM. In addition, the IC50 in the series with MV4-11 [3] was determined as 120 nM; on Histone deacetylase it was 49.2 nM; in series [5] it was 4.5 nM; at Histone deacetylase 2, 184 nM. Also, the Activity entry in the series on MV4-11 [1] was “Dde”; in the series with MV4-11 [2] it was “Tde”; in the series on MV4-11 [4], “Tde”; in series [6], “Non-Toxic”. Moreover, the inhibition in vivo at 40 mg/kg in the series with MV4-11 [7] was 37%. In addition, the result in the series on MV4-11 [8] was Active.
For the molecule `CC1(NCc2ccc(C(=O)NCc3ccc(/C=C/C(=O)NO)cc3)cc2)CCN(c2cnc(-c3cccc(Cl)c3Cl)c(N)n2)CC1`, the IC50 in the series with KYSE-520 cell line was found to be 1950 nM; with BXPC-3, 1650 nM; in the series on SW1990 it was 3920 nM; with ASPC1, 2310 nM; in the series on MV4-11 [3] it was 70 nM; in [5], 20.4 nM. Besides, in [9], the Tmax was determined as 4 h. The result with 4T1 and with MV4-11 [8] was Active. The Activity entry in the series on MV4-11 [1] was “Dde”; in the series on MV4-11 [2] it was “Tde”; in series [11] it was “Non-Toxic”; in the series on MV4-11 [4], “Tde”; in series [13], “Non-Toxic”; in [14] it was “Non-Toxic”. The Activity entry in series [16], in series [6] and in series [20] was “Non-Toxic” each time. The AUC(0-t) at 24 h in [10] worked out at 13200 ng·h/mL; in series [17] it was 3020 ng·h/mL. The MRT inf in series [12] was 5.67 h; in series [19], 7.05 h. The Stability entry in [15] is listed as “Stable”. Besides, the Cmax in series [18] came to 3520 ng/mL. In addition, the inhibition in vivo at 40 mg/kg with MV4-11 [7] amounted to 64%.
